Results taken from patent US9738634B2, “Heterocyclic amide compound and herbicide” (SYNGENTA PARTICIPATIONS AG, priority 2013, dated 2017).

Tests used:
Format in all cases: in vivo
barnyard grass [1] = test: Test Example 1: weedkilling efficacy, preemergent weed treatment in the submerged state; A: barnyard grass
Summary of the method: (§1)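 Pre-emergence paddy test: weed seeds sown in submerged alluvial soil (4 cm water), 2.5-leaf rice transplanted, water-diluted emulsion applied to water surface at sowing at stated g/ha. Scored at 3 weeks, greenhouse 25–30 °C.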

bulrush [2] = test: Test Example 1: weedkilling efficacy, preemergent weed treatment in the submerged state; B: bulrush
Summary of the method: as §1

oval-leafed pondweed [3] = test: Test Example 1: weedkilling efficacy, preemergent weed treatment in the submerged state; C: oval-leafed pondweed
Summary of the method: as §1

transplanted rice = test: Test Example 1: preemergent weed treatment in the submerged state, effect on crop; a: transplanted rice
Summary of the method: as §1

barnyard grass [4] = test: Test Example 2: weedkilling efficacy, growth period weed treatment in the submerged state; A: barnyard grass
Summary of the method: (§2)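 Seedlings at 1-2 leaves in 4 cm-deep submerged alluvial soil received emulsion formulations on the water surface, dosed per hectare; effects were judged 3 weeks on.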

bulrush [5] = test: Test Example 2: weedkilling efficacy, growth period weed treatment in the submerged state; B: bulrush
Summary of the method: as §2

oval-leafed pondweed [6] = test: Test Example 2: weedkilling efficacy, growth period weed treatment in the submerged state; C: oval-leafed pondweed
Summary of the method: as §2

| SMILES | A: barnyard grass, weed kill grade (barnyard grass [1]; treatment dosage 320 g/ha) | B: bulrush, weed kill grade (bulrush [2]; treatment dosage 320 g/ha) | C: oval-leafed pondweed, weed kill grade (oval-leafed pondweed [3]; treatment dosage 320 g/ha) | a: transplanted rice, effect on crop grade (transplanted rice; treatment dosage 320 g/ha) | A (barnyard grass) weedkilling efficacy grade (barnyard grass [4]; treatment dosage 320 g/ha) | B (bulrush) weedkilling efficacy grade (bulrush [5]; treatment dosage 320 g/ha) | C (oval-leafed pondweed) weedkilling efficacy grade (oval-leafed pondweed [6]; treatment dosage 320 g/ha) | A: barnyard grass, weed kill grade (barnyard grass [1]; treatment dosage 252 g/ha) | B: bulrush, weed kill grade (bulrush [2]; treatment dosage 252 g/ha) | C: oval-leafed pondweed, weed kill grade (oval-leafed pondweed [3]; treatment dosage 252 g/ha) | a: transplanted rice, effect on crop grade (transplanted rice; treatment dosage 252 g/ha) | A (barnyard grass) weedkilling efficacy grade (barnyard grass [4]; treatment dosage 252 g/ha) | B (bulrush) weedkilling efficacy grade (bulrush [5]; treatment dosage 252 g/ha) | C (oval-leafed pondweed) weedkilling efficacy grade (oval-leafed pondweed [6]; treatment dosage 252 g/ha) |
| --- | --- | --- | --- | --- | --- | --- | --- | --- | --- | --- | --- | --- | --- | --- |
| CC(C)(C(=O)Nc1cnc(Cl)c(Cl)c1)N1COCN(c2ccccc2)C1=O [A-3-05] | 3 (weed kill ratio 40% or more, less than 70%) | 5 (weed kill ratio 90% or more, (practically complete withering)) | 5 (weed kill ratio 90% or more, (practically complete withering)) | 0 (weed kill ratio 5% or less (practically no effect)) | 4 (weed kill ratio 70% or more, less than 90%) | 5 (weed kill ratio 90% or more, (practically complete withering)) | 5 (weed kill ratio 90% or more, (practically complete withering)) |  |  |  |  |  |  |  |
| CC(C)(C(=O)Nc1cc(Cl)cnc1Cl)N1COCN(c2ccccc2)C1=O [A-3-06] |  |  |  |  |  |  |  | 5 (weed kill ratio 90% or more, (practically complete withering)) | 5 (weed kill ratio 90% or more, (practically complete withering)) | 4 (weed kill ratio 70% or more, less than 90%) | 1 (weed kill ratio 5% or more, less than 20%) | 3 (weed kill ratio 40% or more, less than 70%) | 4 (weed kill ratio 70% or more, less than 90%) | 2 (weed kill ratio 20% or more, less than 40%) |
| CC(C)(C(=O)Nc1cc(Br)cnc1Cl)N1COCN(c2ccccc2)C1=O [A-3-07] |  |  |  |  |  |  |  | 5 (weed kill ratio 90% or more, (practically complete withering)) | 5 (weed kill ratio 90% or more, (practically complete withering)) | 4 (weed kill ratio 70% or more, less than 90%) | 0 (weed kill ratio 5% or less (practically no effect)) | 4 (weed kill ratio 70% or more, less than 90%) | 5 (weed kill ratio 90% or more, (practically complete withering)) | 1 (weed kill ratio 5% or more, less than 20%) |
| CC(C)(C(=O)Nc1cc(Cl)cnc1Br)N1COCN(c2ccccc2)C1=O [A-3-08] |  |  |  |  |  |  |  | 5 (weed kill ratio 90% or more, (practically complete withering)) | 5 (weed kill ratio 90% or more, (practically complete withering)) | 4 (weed kill ratio 70% or more, less than 90%) | 0 (weed kill ratio 5% or less (practically no effect)) | 2 (weed kill ratio 20% or more, less than 40%) | 3 (weed kill ratio 40% or more, less than 70%) | 2 (weed kill ratio 20% or more, less than 40%) |
| CC(C)(C(=O)Nc1cncc(C(F)(F)F)c1)N1COCN(c2ccccc2)C1=O [A-3-10] |  |  |  |  |  |  |  | 5 (weed kill ratio 90% or more, (practically complete withering)) | 5 (weed kill ratio 90% or more, (practically complete withering)) | 5 (weed kill ratio 90% or more, (practically complete withering)) | 1 (weed kill ratio 5% or more, less than 20%) | 3 (weed kill ratio 40% or more, less than 70%) | 5 (weed kill ratio 90% or more, (practically complete withering)) | 4 (weed kill ratio 70% or more, less than 90%) |
| CC(C)(C(=O)Nc1ccnc(Cl)c1)N1COCN(c2ccccc2)C1=O [A-4-02] |  |  |  |  |  |  |  | 5 (weed kill ratio 90% or more, (practically complete withering)) | 5 (weed kill ratio 90% or more, (practically complete withering)) | 5 (weed kill ratio 90% or more, (practically complete withering)) | 1 (weed kill ratio 5% or more, less than 20%) | 2 (weed kill ratio 20% or more, less than 40%) | 5 (weed kill ratio 90% or more, (practically complete withering)) | 4 (weed kill ratio 70% or more, less than 90%) |
| CC(C)(C(=O)Nc1ccnc(Br)c1)N1COCN(c2ccccc2)C1=O [A-4-03] |  |  |  |  |  |  |  | 5 (weed kill ratio 90% or more, (practically complete withering)) | 5 (weed kill ratio 90% or more, (practically complete withering)) | 5 (weed kill ratio 90% or more, (practically complete withering)) | 1 (weed kill ratio 5% or more, less than 20%) | 2 (weed kill ratio 20% or more, less than 40%) | 5 (weed kill ratio 90% or more, (practically complete withering)) | 4 (weed kill ratio 70% or more, less than 90%) |
| CC(C)(C(=O)Nc1cc(F)nc(F)c1)N1COCN(c2ccccc2)C1=O [A-4-04] | 5 (weed kill ratio 90% or more, (practically complete withering)) | 5 (weed kill ratio 90% or more, (practically complete withering)) | 5 (weed kill ratio 90% or more, (practically complete withering)) | 0 (weed kill ratio 5% or less (practically no effect)) | 3 (weed kill ratio 40% or more, less than 70%) | 5 (weed kill ratio 90% or more, (practically complete withering)) | 4 (weed kill ratio 70% or more, less than 90%) |  |  |  |  |  |  |  |
| CC(C)(C(=O)Nc1ccnc(C(F)(F)F)c1)N1COCN(c2ccccc2)C1=O [A-4-06] |  |  |  |  |  |  |  | 5 (weed kill ratio 90% or more, (practically complete withering)) | 5 (weed kill ratio 90% or more, (practically complete withering)) | 5 (weed kill ratio 90% or more, (practically complete withering)) | 0 (weed kill ratio 5% or less (practically no effect)) | 4 (weed kill ratio 70% or more, less than 90%) | 5 (weed kill ratio 90% or more, (practically complete withering)) | 4 (weed kill ratio 70% or more, less than 90%) |
| CC(C)(C(=O)Nc1cc(-c2ccsc2)ccn1)N1COCN(c2ccccc2)C1=O [A-5-01] | 4 (weed kill ratio 70% or more, less than 90%) | 5 (weed kill ratio 90% or more, (practically complete withering)) | 5 (weed kill ratio 90% or more, (practically complete withering)) | 0 (weed kill ratio 5% or less (practically no effect)) | 4 (weed kill ratio 70% or more, less than 90%) | 4 (weed kill ratio 70% or more, less than 90%) | 4 (weed kill ratio 70% or more, less than 90%) |  |  |  |  |  |  |  |
| CC(C)(C(=O)Nc1cc(Cl)cc(Cl)n1)N1COCN(c2c(F)cccc2F)C1=O [A-6-01] |  |  |  |  |  |  |  | 5 (weed kill ratio 90% or more, (practically complete withering)) | 5 (weed kill ratio 90% or more, (practically complete withering)) | 5 (weed kill ratio 90% or more, (practically complete withering)) | 3 (weed kill ratio 40% or more, less than 70%) | 5 (weed kill ratio 90% or more, (practically complete withering)) | 5 (weed kill ratio 90% or more, (practically complete withering)) | 5 (weed kill ratio 90% or more, (practically complete withering)) |
| CC(C)(C(=O)Nc1cc(Cl)cc(Br)n1)N1COCN(c2c(F)cccc2F)C1=O [A-6-02] |  |  |  |  |  |  |  | 5 (weed kill ratio 90% or more, (practically complete withering)) | 5 (weed kill ratio 90% or more, (practically complete withering)) | 5 (weed kill ratio 90% or more, (practically complete withering)) | 0 (weed kill ratio 5% or less (practically no effect)) | 5 (weed kill ratio 90% or more, (practically complete withering)) | 5 (weed kill ratio 90% or more, (practically complete withering)) | 5 (weed kill ratio 90% or more, (practically complete withering)) |
| CC(C)(C(=O)Nc1cc(C(F)(F)F)ccn1)N1COCN(c2ccc(Cl)c(Cl)c2)C1=O [A-6-03] | 3 (weed kill ratio 40% or more, less than 70%) | 5 (weed kill ratio 90% or more, (practically complete withering)) | 0 (weed kill ratio 5% or less (practically no effect)) | 0 (weed kill ratio 5% or less (practically no effect)) | 0 (weed kill ratio 5% or less (practically no effect)) | 2 (weed kill ratio 20% or more, less than 40%) | 0 (weed kill ratio 5% or less (practically no effect)) |  |  |  |  |  |  |  |
| Cc1ccc(N2COCN(C(C)(C)C(=O)Nc3cc(C(F)(F)F)ccn3)C2=O)cc1Cl [A-6-04] | 4 (weed kill ratio 70% or more, less than 90%) | 4 (weed kill ratio 70% or more, less than 90%) | 2 (weed kill ratio 20% or more, less than 40%) | 0 (weed kill ratio 5% or less (practically no effect)) | 1 (weed kill ratio 5% or more, less than 20%) | 2 (weed kill ratio 20% or more, less than 40%) | 0 (weed kill ratio 5% or less (practically no effect)) |  |  |  |  |  |  |  |
